Measurements as given in patent US6812034B2, “Fetuin-MGP-mineral complex in serum assayed to determine calcification risk” (The Regents of the University of California, priority 2000, dated 2004).

Assays:
[1] = previous study (Price et al. 1981); cited from earlier work
[2] = weight, tibia length and serum calcium and phosphate in warfarin-treated rats; type: in vivo, rat
Text: This procedure induces artery calcification within 2 weeks without the presence of hypercalcemia.

[3] = tested on: warfarin-induced artery calcification; test: artery calcification in rats treated with warfarin for 2 or 4 weeks; type: in vivo, rat; conditions: 6.25 mg P/kg/day plus warfarin, both carotid arteries
Method: (§1) Tissues were subsequently washed extensively with buffer and extracted with 1 ml of 10% formic acid for 24 h at room temperature, as described. Calcium levels in serum were determined colorimetrically using cresolphthalein complexone (Sigma) and phosphate levels in serum and in acid tissue extracts were determined calorimetrically as described (Zhu et al. (1994) Cardiology, 85: 370-377). Tissue sectioning and staining were carried out by Biomedical Testing Services, Inc., (San Diego, Calif.). The effect of bisphosphonates on artery calcification was also examined in rats treated with warfarin alone using procedures which have been described elsewhere (Price et al. (1998) Arterioscler. Thromb. Vasc. Biol. 18: 1400-1407).

[4] = filtration of serum through a 300 kDa membrane; type: in vivo, rat
Method: In a typical experiment, blood was obtained from 2 control rats and from 2 rats 6 h after a dose of 8 mg etidronate/100 g, and each blood sample was immediately placed into a 2.5 ml gold top vacutainer tube (SST gel and clot activator tube, Becton Dickinson). […] The filtrate and retentate were then analyzed to determine calcium, phosphate, and volume. The typical filtrate volume recovered was 0.70 ml and the typical retentate volume recovered was 0.26 ml.

[5] = tested on: normal bone mineralization; conditions: parenteral; cited from earlier work
[6] = tested on: vitamin D-induced artery calcification; test: mineral phosphate accumulation in acid demineralization extracts of thoracic aorta and carotid arteries, vitamin D plus warfarin; type: in vivo, rat
Method: as §1, with “first” for “also”, “in which artery calcification was induced by treatment” for “treated”, “plus high doses of vitamin D. […] All animals were killed by exsanguination at 96 h. […] All animals were killed by exsanguination at 96 h after the first vitamin D dose. […] All animals were killed by exsanguination 96 h after the first vitamin D injection.” for “alone using procedures which have been described elsewhere (Price et al. (1998) Arterioscler. Thromb. Vasc. Biol. 18: 1400-1407).”

[7] = tested on: growth plate cartilage mineralization; test: microradiograph of the proximal tibia; type: in vivo, rat; conditions: 4 mg to 100 g rats at t=0 and 24 h, killed at 48 h
Method: These rats were exsanguinated at t=48 h. Serum was obtained at each time point and stored at -20° C. until later analysis. Tibias from the rats killed at 48 h, as well as from age-matched controls, were removed, cleaned of adhering tissue, and fixed in 70% ethanol. Tibia samples were embedded in plastic and cut into sections of 500 microns by Pathology Associates International (Frederickberg, Md.). The resulting sections were microradiographed using a Hewlett-Packard Model […] Faxitron Xray machine. All animal experiments were approved by the UCSD animal subjects committee.

[8] = centrifugation of serum at 16,000 x g; type: in vivo, rat
Method: The effect of centrifugation on the serum mineral complex was investigated in serum samples obtained 6 h after administration of etidronate at doses of 8 mg/100 g and 32 mg/100 g body weight. At the lower dose, no significant amount of calcium, phosphate, or MGP was sedimented after centrifugation for 30 min at 16,000×g. At the higher dose, a well-defined translucent pellet was obtained after centrifugation for 30 min at 16,000×g. This pellet was dissolved in 1 ml of 50 mM HCl and analyzed for calcium, phosphate, and MGP.

[9] = serum levels of calcium and phosphate in rats treated with vitamin D plus warfarin; type: in vivo, rat
Method: For measurement of mineral accumulation in arteries, each tissue was removed within 30 minutes of death and immediately frozen. Tissues were subsequently washed extensively with buffer and extracted with 1 ml of 10% formic acid for 24 h at room temperature, as described. Calcium levels in serum were determined colorimetrically using cresolphthalein complexone (Sigma) and phosphate levels in serum and in acid tissue extracts were determined calorimetrically as described (Zhu et al. (1994) Cardiology, 85: 370-377). Tissue sectioning and staining were carried out by Biomedical Testing Services, Inc., (San Diego, Calif.). […]

[10] = 6.25 mg P/kg/day plus warfarin, 4 weeks
[11] = 8 mg/100 g sc, 6 h, 0.26 ml retentate, 300 kDa membrane
[12] = 8 mg/100 g sc, 6 h, 0.7 ml filtrate, 300 kDa membrane
[13] = 8 mg/100 g sc, 6 h, 1 ml serum prior to filtration
[14] = 8 mg/100 g, 6 h serum incubated at room temperature for 1 day
[15] = 32 mg/100 gm sc, 6 h, 1 ml pooled serum prior to centrifugation
[16] = 32 mg/100 gm sc, 6 h, 16,000 x g 30 min
[17] = 6.25 mg P/kg/day, 84 h after first vitamin D

## CC(O)(P(=O)(O)O)P(=O)(O)O [Etidronate, (1-hydroxyethylylidene)-bisphosphonate]
[1]
  transient elevation in serum BGP levels: 3 fold
[2]; 6.25 mg P/kg/day plus warfarin 4 weeks, warfarin alone 3.80±0.04, p<0.001
  final length of the tibia: 3.59±0.03 cm
[2]; [10]
  Ending wt: 238 ± 11 gm
  effect on weight gain: inhibits weight gain
  mg Ca dl serum: 10.9 ± 0.8 mg/dL
  mg P dl serum: 8.1 ± 0.6 mg/dL
[3]
  nmol PO4 Carotid: 55.2 ± 14.5 nmol
[4]; [11]
  Calcium, Retentate: 2.72 µmol
  MGP, Retentate: 11,630 ng
  Phosphate, Retentate: 1.84 µmol
[4]; [12]
  Calcium, Filtrate: 1.18 µmol
  MGP, Filtrate: 291 ng
  Phosphate, Filtrate: 2.98 µmol
[4]; [13]
  Calcium, Initial Serum: 4.30 µmol
  MGP, Initial Serum: 14,800 ng
  Phosphate, Initial Serum: 5.10 µmol
[4]; [14]
  filtrate MGP: 320 ng
  filtrate calcium: 1.21 µmol
  filtrate phosphate: 2.79 µmol
  retentate MGP: 12,127 ng
  retentate phosphate: 2.02 µmol
[4]; 8 mg/100 g, 6 h serum incubated at room temperature for 1 day, then 300 kDa filtration
  retentate calcium: 2.83 µmol
[4]; serum frozen on dry ice and thawed 5 times
  retentate and filtrate levels of calcium, phosphate and MGP vs serum filtered immediately: comparable
[5]
  dose required to inhibit normal bone mineralization in vivo: about 5 mg P/kg/day
[6]; 84 h, FIG. 3
  dose required to reduce the extent of mineralization by half in the thoracic aorta: 2 mg P/kg/day
[6]; 84 h, FIG. 4
  dose required to reduce the extent of mineralization by half in the carotid artery: 2 mg P/kg/day
[6]; daily subcutaneous dose, vitamin D-induced artery calcification, male rats initially 200 g
  Artery Calcification Dose for 50% inhibition: 2 mg P/kg/day
[6]; relative to etidronate = 1
  Artery Calcification Relative potency: 1
[7]
  microradiograph of the proximal tibial metaphysis: alternating bands of calcification and no calcification
[8]; 8 mg/100 g, 6 h serum, 30 minutes at 16,000 x g
  sedimentation of calcium, phosphate or MGP: unable to demonstrate the sedimentation
[8]; [15]
  Calcium, Initial Serum: 9.64 µmol
  MGP, Initial Serum: 16,200 ng
  Phosphate, Initial Serum: 7.49 µmol
[8]; [16]
  Calcium, Dissolved Pellet: 3.27 µmol
  Calcium, Supernatant: 6.88 µmol
  MGP, Dissolved Pellet: 14,400 ng
  MGP, Supernatant: 800 ng
  Phosphate, Dissolved Pellet: 1.68 µmol
  Phosphate, Supernatant: 5.84 µmol
[9]; 0.25 mg P/kg/day, 84 h
  Serum Ca: 13.7 ± 1.2 mg/dL
  Serum P: 10.8 ± 0.5 mg/dL
[9]; 1.25 mg P/kg/day, 84 h
  Serum Ca: 13.5 ± 0.7 mg/dL
  Serum P: 9.5 ± 0.3 mg/dL
[9]; [17]
  Serum Ca: 15.0 ± 0.5 mg/dL
  Serum P: 8.2 ± 0.4 mg/dL
